For data set [1], the system named is MDA-MB-436 subcutaneous transplanted tumor. The data set can be described thus: Mouse MDA-MB-436 subcutaneous in vivo transplanted tumor model. The conditions noted are these: Day 0-Day 10: 1 mg/kg, Day 11-Day 28: 0.1 mg/kg, once a day.
Procedure: Human breast cancer MDA-MB-436 cells were placed in Leibovitz's L-15 medium (supplemented with 10 μg/mL insulin, 16 μg/mL glutathione, 10% fetal bovine serum and 1% penicillin-streptomycin solution) and cultured at 37° C. Conventional digestion treatment with trypsin was performed twice a week for passage. When the cell saturation was 80%-90%, and the number reached the requirement, the cells were harvested, counted, and inoculated. BALB/c nude mice (from Beijing Vital River Laboratory Animal Technology Co., Ltd.) were subcutaneously inoculated with 0.2 mL (10×10^6) of MDA-MB-436 cells (plus matrigel, with the volume ratio of 1:1) on the right back. When the average tumor volume reached about 180 mms, grouping and administration were performed (marked as Day 0). […] The administration frequency was once a day, the administration cycle was 29 days, and the drug withdrawal observation period was set to 14 days. After grouping, the tumor diameter was measured twice a week with a vernier caliper. The formula for calculating the tumor volume was: V=0.5×a×b^2, where a and b represented the long and short diameters of the tumor, respectively.
Another data set has as its target PARP1 enzyme (Homo sapiens (Human), UniProt P09874). The data set can be described thus: PARP1 enzyme activity test (chemiluminescence kit, BPS Bioscience). It counts as biochemical. The following applies: read-out: PARP-1 enzyme activity IC50.
The next data set deals with MDA-MB-436 cells. The data set can be described thus: MDA-MB-436 cell activity test (CellTiter-Glo, 7 days). It counts as cell-based, Human. The following applies: for IC50: 7 days incubation, read-out: MDA-MB-436 cell inhibitory activity IC50. As to the method: On day 1, the cells in the exponential growth phase were collected, and the cell suspension was adjusted to 4000 cells/135 μL with the culture medium. 135 μL of the cell suspension was added to each well of a 96-well cell culture plate and incubated overnight. On day 2, compounds at different concentrations were added, and the plate was placed in the incubator and incubated for 7 days. After the incubation was completed, according to operation instructions for a CellTiter-Glo kit (Promega, G7573), 75 μL of CTG solution, which was already pre-melted and equilibrated to room temperature, was added to each well, and the mixture was uniformly mixed for 2 min using a microplate shaker. The plate was placed at room temperature for 10 min, and then […] were measured using an Envision2104 plate reader (PerkinElmer). […] The IC50 value was calculated using GraphPad Prism software.

Read-outs that look alike come from different tables or passages of the source.

Chain of PARP1 enzyme (P09874 whole entry): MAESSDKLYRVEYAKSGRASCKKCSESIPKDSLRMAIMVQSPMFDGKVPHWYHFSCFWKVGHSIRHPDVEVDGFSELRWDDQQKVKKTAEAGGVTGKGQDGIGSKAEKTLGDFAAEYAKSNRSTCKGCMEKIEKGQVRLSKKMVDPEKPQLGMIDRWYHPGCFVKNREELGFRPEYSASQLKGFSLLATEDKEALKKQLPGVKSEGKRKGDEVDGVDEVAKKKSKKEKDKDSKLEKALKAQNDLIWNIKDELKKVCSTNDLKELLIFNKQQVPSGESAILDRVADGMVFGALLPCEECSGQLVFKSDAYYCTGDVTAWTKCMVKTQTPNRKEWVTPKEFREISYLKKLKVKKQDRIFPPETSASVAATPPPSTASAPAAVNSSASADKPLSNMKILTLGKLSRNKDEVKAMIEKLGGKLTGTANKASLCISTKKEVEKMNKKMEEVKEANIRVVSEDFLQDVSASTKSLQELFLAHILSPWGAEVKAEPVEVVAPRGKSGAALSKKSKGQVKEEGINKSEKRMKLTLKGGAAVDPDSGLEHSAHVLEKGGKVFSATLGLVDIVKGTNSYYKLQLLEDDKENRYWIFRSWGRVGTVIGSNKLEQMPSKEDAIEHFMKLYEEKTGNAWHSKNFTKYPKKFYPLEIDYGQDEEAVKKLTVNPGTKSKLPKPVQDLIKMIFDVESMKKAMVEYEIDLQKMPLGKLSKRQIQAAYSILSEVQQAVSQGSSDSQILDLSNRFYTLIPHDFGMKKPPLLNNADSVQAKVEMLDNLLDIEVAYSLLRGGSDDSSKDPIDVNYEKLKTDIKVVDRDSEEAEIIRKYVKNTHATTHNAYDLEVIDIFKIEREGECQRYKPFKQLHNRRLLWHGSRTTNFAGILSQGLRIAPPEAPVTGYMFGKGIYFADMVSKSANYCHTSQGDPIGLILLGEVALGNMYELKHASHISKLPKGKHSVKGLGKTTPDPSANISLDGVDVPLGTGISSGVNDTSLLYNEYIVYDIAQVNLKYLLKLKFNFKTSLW
Procedure for PARP1 enzyme: PARP1 chemical fluorescence detection kit was purchased from BPS Bioscience. The histone solution in the kit was diluted 5× with 1×PBS, and 25 μL of the diluted histone solution was added to a microwell plate and incubated overnight at 4° C. After the incubation, the plate was washed three times with PBST (0.05% Tween-20). 100 μL of the blocking solution was added to the microwell plate and incubated at 25° C. for 90 minutes. After the incubation was completed, the plate was washed three times with PBST. 2.5 μL of compounds at different concentrations diluted in test buffer and 12.5 μL of substrate mixed solution (1.25 μL 10×PARP test buffer; 1.25 μL 10×PARP test mixed solution; 2.5 μL Activated DNA, 7.5 μL double-distilled water) were added to the microwell plate. The PARP1 enzyme was diluted to 2 ng/μL, 10 μL of the diluent was added to the microwell plate, and the reaction system was incubated at 25° C. for 60 minutes.
After the incubation was completed, the plate was washed three times with PBST. Streptavidin-HRP was diluted 50× with a blocking solution, and 25 μL of the diluent was added to the microwell plate and incubated at 25° C. for 30 minutes. After the incubation, the plate was washed three times with PBST. ELISA ECL substrate A and substrate B were mixed at a ratio of 1:1 (v/v), 50 μL of the mixture was added to the microwell plate, and the chemiluminescence value was read.
Curve fitting was performed by four parameters (log(inhibitor) vs. response—Variable slope) using GraphPad Prism software, and the IC50 value was calculated.

On to `CCc1cc2ncc(CN3CCN(c4ccc(C(=O)NC5CC5)nc4)CC3)cc2[nH]c1=O` [Compound 4], for which the “body weight of the animals” value in data set [1] is on record as “no significant decrease”.
With `CCC1=CC2N=CC(CN3CCN(c4ccc(C(=O)C[C@@H]5C[C@@H]5F)nc4)CC3)=CC2CC1=O` (stereo partly drawn) [Compound 11], the IC50 (as a rule, the concentration that gives 50% inhibition) turned out to be 0.54 nM on PARP1 enzyme and 6 nM in the data set with MDA-MB-436 cells. Besides, in the data set with MDA-MB-436 cells (10 μM, MDA-MB-436 cells), the “Max inh. % 10 μM” value came out at 85.2%.
Regarding `CCc1cc2ncc(CN3CCN(c4ccc(NC(=O)[C@H]5C[C@H]5F)nc4)CC3)cc2[nH]c1=O` [Compound 34], at PARP1 enzyme, the IC50 was found to be 0.66 nM.
On to `CCc1cc2ncc(CN3CCN(c4ccc(NC(=O)[C@@H]5C[C@H]5F)nc4)CC3)cc2[nH]c1=O` [Compound 35], for which the IC50 at PARP1 enzyme turned out to be 0.97 nM.
Take `CCc1cc2ncc(CN3CCN(c4ccc(C(=O)NC5C[C@H]5F)nc4)CC3)cc2[nH]c1=O` (stereo partly drawn) [Compound 41]: the IC50 in the data set with MDA-MB-436 cells (Homo sapiens, MDA-MB-436, 168 h) is 2.3 nM. Moreover, the inhibition at 10 µM in the data set with MDA-MB-436 cells (Homo sapiens, 10 μM, MDA-MB-436 cells, read-out: Max inh. % 10 μM) is 92.1%.
Take `COc1cc2ncc(CN3CCN(c4ccc(C(=O)NC5CN(c6ccccc6)C5)nc4)CC3)cc2[nH]c1=O` [Compound 46]: the IC50 on PARP1 enzyme is 0.56 nM.

Values taken from patent publication US20260027108A1, “PHARMACEUTICAL COMPOSITION OF HETEROARYL DERIVATIVE AND MEDICAL USE THEREOF” (Haisco Pharmaceutical Group Co., Ltd., priority 2022, published 2026).
